Among the test systems are DU-145; Hs-578T; BT-549; A549; CAKI-1; NCI-H226; SK-MEL-2; UO-31; M14; K562; IGROV-1; HT-29; NCI-H522; NCI-H460; MCF7; NCI/ADR-RES; UACC-257; NCI-H23; Malme-3M.
Assay in all cases: NCI anticancer screen, dose series, 48 h

11 compounds from ChEMBL document CHEMBL1201862, “PubChem BioAssay data set” (2004) can be followed below.

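A five-concentration, 48-hour dose response in 96-well plates underlies each endpoint, interpolated linearly between surrounding concentrations. Abbreviation: GI50, concentration required for 50% inhibition of growth.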 Calls of active or inactive are those of the source. No stated cut-off is given here; in the data, active = GI50 up to about 1.1 µM and inactive = higher.

As for `CC(=O)O[C@H]1C(=O)[C@@]2(C)[C@H]([C@H](OC(=O)c3ccccc3)[C@]3(O)C[C@H](OC(=O)[C@H](O)[C@@H](NC(=O)c4ccc(N)cc4)c4ccccc4)C(C)=C1C3(C)C)[C@]1(OC(C)=O)CO[C@@H]1C[C@@H]2O`, the GI50 in the test on DU-145 was 0.0191 µM (active); in the test with Hs-578T it was < 0.005 µM (active); in the test on BT-549, 0.0384 µM (active); in the test on A549, 0.00847 µM (active); in the test on CAKI-1, 4.66 µM (inactive); with NCI-H226, < 0.005 µM (active). Further, the GI50 is < 0.005 µM (active) in the test with SK-MEL-2; 8.32 µM (inactive) with UO-31; 0.0188 µM (active) with M14; < 0.005 µM (active) with K562; 0.014 µM (active) in the test with IGROV-1; < 0.005 µM (active) with HT-29. The GI50 was < 0.005 µM (active) in the test on NCI-H522, < 0.005 µM (active) in the test on NCI-H460, < 0.005 µM (active) in the test with MCF7 and 15.3 µM (inactive) in the test on NCI/ADR-RES.
In the case of `CCOC(=O)c1c[nH]c2c(Sc3ccccc3)nccc2c1=O`, the GI50 is 90.8 µM (inactive) with DU-145; > 100 µM (inactive) in the test on Hs-578T; 30.7 µM (inactive) in the test with BT-549; 87.5 µM (inactive) with A549; 41.3 µM (inactive) with CAKI-1; 95.3 µM (inactive) in the test with NCI-H226. Also, the GI50 in the test on SK-MEL-2 was > 100 µM (inactive); with UACC-257, > 100 µM (inactive); in the test on UO-31 it was 13.2 µM (inactive); with M14 it was > 100 µM (inactive); in the test with IGROV-1, 21.7 µM (inactive); in the test with NCI-H23, 32.4 µM (inactive). The GI50 in the test on HT-29 was 97.5 µM (inactive); in the test with NCI-H522 it was 19.7 µM (inactive); in the test on NCI-H460, > 100 µM (inactive); in the test on MCF7 it was 71.4 µM (inactive); in the test with NCI/ADR-RES, > 100 µM (inactive).
On to `COC(=O)[C@@H]1[C@H](O)CC[C@H]2[C@@]1(C)CC[C@@H](C)[C@]2(COC(C)=O)CC(=O)c1ccoc1`, for which the GI50 in the test with DU-145, in the test on Hs-578T, with BT-549, in the test on A549, with CAKI-1 and with NCI-H226 was > 50 µM (inactive) throughout. Also, the GI50 in the test with SK-MEL-2, in the test on UACC-257, with UO-31, in the test with M14, in the test on IGROV-1 and in the test on NCI-H23 was > 50 µM (inactive) each time. Further, the GI50 in the test with HT-29 is > 50 µM (inactive); with NCI-H522 it was 35.7 µM (inactive); in the test with NCI-H460, > 50 µM (inactive); with MCF7, > 50 µM (inactive); in the test with NCI/ADR-RES, > 50 µM (inactive).
As to `C=C1C[C@@H]2O[C@H]3[C@H]4[C@@H](C[C@@H](C)[C@@H](OC(C)=O)[C@H]42)[C@@H](C)CO[C@@]3(C)[C@H](OC(=O)CCCCCCC)C[C@H]1O`, the GI50 in the test on DU-145 was 14.9 µM (inactive); in the test with Hs-578T, 14.4 µM (inactive); in the test with BT-549, 17.2 µM (inactive); in the test with A549, 18.2 µM (inactive); with CAKI-1 it was 14.8 µM (inactive); in the test on NCI-H226, 10.5 µM (inactive). In addition, the GI50 in the test on SK-MEL-2 was 20.3 µM (inactive); in the test with UACC-257 it was 16.7 µM (inactive); in the test with UO-31 it was 15.8 µM (inactive); in the test with M14, 20 µM (inactive); in the test on K562 it was 22.9 µM (inactive); in the test with IGROV-1 it was 17.5 µM (inactive). Besides, the GI50 is 19.8 µM (inactive) in the test on NCI-H23; 20.1 µM (inactive) in the test on HT-29; 16.4 µM (inactive) in the test with NCI-H522; 16.1 µM (inactive) in the test on NCI-H460; 21.4 µM (inactive) in the test on MCF7; 15.9 µM (inactive) in the test with NCI/ADR-RES.
As for `Cc1cc(S(=O)(=O)NC2=Nc3ccccc3C(c3ccccc3)N2)c(S)cc1Cl` (stereo not drawn), the GI50 in the test on DU-145 was > 100 µM (inactive); with Hs-578T, > 100 µM (inactive); with BT-549 it was > 100 µM (inactive); with A549, 18.2 µM (inactive); in the test on CAKI-1, 45.8 µM (inactive); in the test on NCI-H226 it was 17.4 µM (inactive). For the same compound, the GI50 is > 100 µM (inactive) in the test with UACC-257; 24.9 µM (inactive) with UO-31; > 100 µM (inactive) in the test on Malme-3M; > 100 µM (inactive) with M14; 87.9 µM (inactive) with K562; > 100 µM (inactive) with IGROV-1. In addition, the GI50 is > 100 µM (inactive) with NCI-H23; > 100 µM (inactive) with HT-29; > 100 µM (inactive) in the test with NCI-H522; 12.9 µM (inactive) with NCI-H460; > 100 µM (inactive) with MCF7; > 100 µM (inactive) in the test on NCI/ADR-RES.
With `Oc1ccc(C(c2ccc(O)cc2)c2ccc(O)cc2)cc1`, the GI50 in the test on DU-145 was 27.4 µM (inactive); in the test with Hs-578T it was 21.7 µM (inactive); in the test with BT-549 it was 20.5 µM (inactive); with A549, 35.9 µM (inactive); with CAKI-1, 16.1 µM (inactive); with NCI-H226 it was 10.4 µM (inactive). The GI50 with SK-MEL-2 is 19.8 µM (inactive); with UACC-257 it was 20.4 µM (inactive); with UO-31, 18.4 µM (inactive); in the test with Malme-3M, 16.5 µM (inactive); in the test with IGROV-1, 14.3 µM (inactive); in the test on NCI-H23 it was 19.2 µM (inactive). Also, the GI50 in the test with HT-29 was 19 µM (inactive); in the test on NCI-H522 it was 17.1 µM (inactive); in the test on NCI-H460, 18.8 µM (inactive); in the test with MCF7 it was 32.4 µM (inactive); in the test with NCI/ADR-RES it was 18.9 µM (inactive).
As for `COc1ccc(/N=N/C(=O)NC(CC(C)C)C(=O)NC(CC(C)C)C(=O)O)cc1` (stereo not drawn), the GI50 with DU-145 is 27.7 µM (inactive); with Hs-578T it was > 100 µM (inactive); with BT-549 it was > 100 µM (inactive); with A549, 38.9 µM (inactive); in the test on CAKI-1, > 100 µM (inactive); with NCI-H226, > 100 µM (inactive). In addition, the GI50 was 7.98 µM (inactive) in the test with UACC-257; 24.8 µM (inactive) in the test with UO-31; 23.7 µM (inactive) in the test with Malme-3M; 29.9 µM (inactive) with M14; 8.45 µM (inactive) with K562; > 100 µM (inactive) in the test on IGROV-1. Besides, the GI50 in the test on NCI-H23 was > 100 µM (inactive); in the test on HT-29 it was > 100 µM (inactive); with NCI-H522, 51.9 µM (inactive); with NCI-H460 it was 68.9 µM (inactive); in the test on MCF7, > 100 µM (inactive); in the test on NCI/ADR-RES it was > 100 µM (inactive).
Consider `OCC1OC(O)C(/N=C\c2ccc3c(c2)OCO3)C(O)C1O` (stereo not drawn), for which the GI50 with DU-145, in the test with Hs-578T, in the test with BT-549, in the test with A549, in the test on CAKI-1 and in the test with NCI-H226 was > 100 µM (inactive) in each case. The GI50 in the test with SK-MEL-2, in the test on UACC-257, in the test on UO-31, with Malme-3M, with M14 and in the test on IGROV-1 was > 100 µM (inactive) each time. The GI50 in the test with NCI-H23, in the test on HT-29, with NCI-H522, with NCI-H460, with MCF7 and in the test with NCI/ADR-RES was > 100 µM (inactive) each time.
Consider `CN(CCSCCN(C)C(=O)OC(C)(C)C)C(=O)OC(C)(C)C`, for which the GI50 in the test on DU-145, in the test on Hs-578T, with BT-549, in the test on A549, in the test with CAKI-1 and in the test on SK-MEL-2 was > 100 µM (inactive) throughout. Further, the GI50 with UACC-257, in the test on UO-31, in the test with Malme-3M, in the test with M14, in the test with K562 and with IGROV-1 was > 100 µM (inactive) throughout. Besides, the GI50 with NCI-H23, in the test on HT-29, with NCI-H522, in the test on NCI-H460, in the test with MCF7 and in the test with NCI/ADR-RES was > 100 µM (inactive) in each case.
In the case of `S=C1CSc2c(cnc3ccccc23)N1`, the GI50 is > 100 µM (inactive) with DU-145; 20 µM (inactive) with Hs-578T; 71.4 µM (inactive) with BT-549; > 100 µM (inactive) with A549; 78.7 µM (inactive) in the test with CAKI-1; 53.7 µM (inactive) in the test with NCI-H226. Further, the GI50 in the test on UACC-257 is > 100 µM (inactive); in the test on UO-31 it was 65.6 µM (inactive); with Malme-3M it was > 100 µM (inactive); in the test with M14, > 100 µM (inactive); with K562, > 100 µM (inactive); with IGROV-1, > 100 µM (inactive). The GI50 in the test with NCI-H23 is > 100 µM (inactive); with HT-29 it was > 100 µM (inactive); with NCI-H522 it was > 100 µM (inactive); in the test with NCI-H460 it was 56.6 µM (inactive); with MCF7 it was > 100 µM (inactive); in the test with NCI/ADR-RES, > 100 µM (inactive).
In the case of `CC12CCC(=O)N1c1cncnc1N2` (stereo not drawn), the GI50 in the test with DU-145, in the test with Hs-578T, in the test with BT-549, in the test with A549, in the test on NCI-H226 and with SK-MEL-2 was > 10 µM (inactive) in each case. The GI50 in the test with UACC-257, with UO-31, in the test on Malme-3M, in the test with M14, with K562 and in the test with IGROV-1 was > 10 µM (inactive) throughout. The GI50 in the test with NCI-H23, in the test on HT-29, in the test on NCI-H522, in the test with NCI-H460, in the test with MCF7 and in the test with NCI/ADR-RES was > 10 µM (inactive) in each case.
